{
  "source": "patent US20240041959A1",
  "about": "“NOVEL MODIFIED REOVIRUS AND USE THEREOF” (priority 2020, published 2024)",
  "key": {"normal cell line HS27": {"tested_on": "normal cell line HS27", "assay": "WST cell viability in normal cell line (Example 3)", "type": "cell-based, human", "settings": "HS27, 3 days, FIG. 1A", "protocol": "(§1) The cell lines used in this example are as follows: normal cell line HS27, and paclitaxel-resistant cancer cell lines Skmel28, A375, and B16F10. Each cell line was cultured in DMEM medium containing 10% fetal bovine serum and seeded at a density of 3,000 cells/well in a 96-well plate, followed by incubation at 37° C. and 5% CO2 for 24 hours. RP116 was serially diluted at concentrations ranging from 0.008 to 1,000 MOI (Multiplicity of Infection) and treated to the prepared cells, and further incubated for three days at 37° C. and 5% CO2. The number of surviving cells was measured using a WST kit (DoGen, Seoul, South Korea, Cat No: EZ-3000) according to the manufacturer's instructions."}, "[1]": {"tested_on": "paclitaxel-resistant cancer cell lines Skmel28, A375, and B16F10", "assay": "WST cell viability in paclitaxel-resistant cancer cell lines (Example 3)", "type": "cell-based", "settings": "even at high concentrations of 100 nM or more, FIG. 1B", "protocol": "as §1, with “RP116 was serially diluted at concentrations ranging from 0.008 to 1,000 MOI (Multiplicity of Infection) and treated to the prepared cells, and further incubated for three days at 37° C. and 5% CO2.” left out"}},
  "data": [
    {"smiles": "CC(=O)O[C@H]1C(=O)[C@@]2(C)[C@H]([C@H](OC(=O)c3ccccc3)[C@]3(O)C[C@H](OC(=O)[C@H](O)[C@@H](NC(=O)c4ccccc4)c4ccccc4)C(C)=C1C3(C)C)[C@]1(OC(C)=O)CO[C@@H]1C[C@@H]2O", "note": "[paclitaxel]", "values": [
      {"measurement": "cell viability of normal cell line vs control group", "setting": "normal cell line HS27", "value": "cell viability decreased in a concentration-dependent manner"},
      {"measurement": "cell viability of paclitaxel-resistant cancer cells vs control group", "setting": "[1]", "value": "no significant difference in cell viability compared to the control group"}
    ]}
  ]
}
